This is an account of results in patent publication US4966915A, “L-dopa derivatives or their acid addition salts, process for producing same and their use” (priority 1987, dated 1990).

A word on the LD50: it is the dose at which mortality reaches 50%. Low values mean a more toxic substance, high ones a less toxic substance.

Series [1] in a line: Acute toxicity, oral administration (mice). In kind it is in vivo, ddY-strain male mice. As to conditions: mortality up to 1 week; for LD50 at 168 h: mouse, in vivo. An excerpt: Each of the test drugs was suspended in a 0.5% sodium carboxymethylcellulose solution containing 0.1% Tween 80 and orally administered to each of ddY-strain male mice (body weight 24 to 31 g, n=5), and a mortality up to 1 week after administration was observed. Toxicity of test compounds (Compounds A and B) was extremely low. The LD50 value was 6 g/kg or more in both cases.

Series [2] is described as follows: Concentrations of L-dopa in the lumen and tissue of the small intestine by an in situ ligating loop method (rats). The class given is in vivo, male rats. To be noted: jejunal loop, with 0.4 mg carbidopa. From the text:
FIG. 8 illustrates change with time of amounts of Compound A (Δ) and L-dopa (o) after injection of Compound A, and amount of L-dopa (.cndot.) after injection of L-dopa in the lumen of the small intestine of rats according to an in situ ligating loop method.
FIG. 9 illustrates change with time of amounts of Compound A (Δ) and L-dopa (o) after injection of Compound A, and amount of L-dopa (.cndot.) after injection of L-dopa in the tissue of the small intestine of rats according to an in situ ligating loop method.
Measuring concentrations of L-dopa in the lumen and tissue of the small intestine by an in situ ligating loop method (rats)
Eight week-old male rats (n=3) were fasted overnight before the test, and then under ether anesthesia, were incised at the abdomen. An acute loop of 8 cm length was ligated in the jejunum. Compound A (1.47 mg) or 1.00 mg of L-dopa as a control drug was suspended in 0.5 ml of 0.5% sodium carboxymethylcellulose together with 0.4 mg of carbidopa, and the suspension was injected into the loop. The loop was returned in the abdominal cabity and the cut portion was then sewn. After a fixed time, the loop was taken out again and the content in the loop was well washed with a ice-cooled physiological saline. […] In the resulting solutions, the concentration of L-dopa was determined as in Test Example 1 and the concentration of Compound A as follows, respectively. […]

Series [3] is described as follows: Acute toxicity, intraperitoneal administration (mice). As to conditions: for mortality: up to 1 week, n=5. In kind it is in vivo, ddY-strain male mice. From the text: (2) Intraperitoneal administration
Each of the test drugs was suspended in a sterilized physiological saline and intraperitoneally administered to ddY-strain male mice (body weight 24 to 29 g, n=5), and a mortality up to 1 week after administration was observed.

Series [4] is described as follows: Blood levels of L-dopa after intravenous administration of drugs (rats). The class given is in vivo, SD-strain male rats. How it is done:
FIG. 7 illustrates change with time of a blood level of L-dopa in intravenously administering Compound A (o) and L-dopa (.cndot.) to rats.
Measuring blood levels of L-dopa after intravenous administration of drugs (rats)
Seven to eight week-old SD-strain male rats (n=3) were previously fasted for 18 hours. Twenty milligrams of L-dopa as a control drug or the equimolar amount of Compound A was dissolved in a concentration of 10 mg/ml in a physiolosical saline containing 50% propylene glycol, and the resulting solution was intravenously administered to the rats at a dose of 10 mg eq./kg, calculated as L-dopa. Immediately after administration, or 5, 15, 30, 45, 60, 90, 120, 150, 180 or 240 minutes after administration, 120 μl of blood was collected through a carotid cannula intubated in advance three days before the test using a heparin-treated glass capillary. The blood was treated as in Test Example 1 and then measured for blood levels of L-dopa.

The conditions of series [5]: cited from earlier work.
Where [6] appears, read: concluded from conversion to L-dopa.

On to `CC(C)(C)C(=O)Oc1ccc(C[C@H](N)C(=O)O)cc1O` [Compound A, 4-O-pivaloyl-L-dopa], for which, in series [1], the toxicity entry is “extremely low” and the LD50 at 168 h is no less than 6000 mg/kg. In series [2] (1.47 mg Compound A vs 1.00 mg L-dopa), the “amount of L-dopa in the lumen (washing liquid) and tissue (homogenate) of the small intestine” value was “retained for a longer time with less fluctuation than that after administration of L-dopa”. The “concentration of L-dopa in the lumen and tissue of the small intestine” value in series [2] is on record as “kept low”. In addition, the mortality entry in series [3] (1800 mg/kg) was “no case of death was observed”. The toxicity entry in series [3] (mortality up to 1 week) is on record as “very low”. Besides, the “hydrolysis to L-dopa in the systemic circulation” value in series [4] (10 mg eq./kg as L-dopa) was “rapidly and completely hydrolyzed to L-dopa”. Besides, the “conversion ratio to L-dopa” value in series [4] (10 mg eq./kg as L-dopa, estimated) was “about 100%”. Moreover, in series [4] (setting [6]), the bioavailability result is “high bioavailability” and the toxicity result is listed as “low toxicity”.
`CC1(C(=O)Oc2ccc(C[C@H](N)C(=O)O)cc2O)CC1` [Compound B, 4-O-(1-methylcyclopropanecarbonyl)-L-dopa]: in series [1], the toxicity result is reported as “extremely low” and the LD50 at 168 h is no less than 6000 mg/kg.
For `N[C@@H](Cc1ccc(O)c(O)c1)C(=O)O` [L-dopa], in series [1], the LD50 at 168 h was found to be 3200 mg/kg. Moreover, the “blood level of L-dopa” value in series [5] (human, in vivo) was “rapidly increases and falls”. In series [5] (patients, chronic L-dopa therapy), the “appearance of dyskinesias after administration of L-dopa” value is 1 to 2 h. In addition, the “elimination of L-dopa from blood” value in series [5] (patients) was “rapid elimination”. The figures for the mortality result in series [3] (1250 mg/kg) and in series [3] (1800 mg/kg) were “two of five mice were dead” and “all the test mice were dead”, respectively.
